≈ marks a conversion by molar mass, not a printed value.
Key:
Escherichia coli K12 = tested on: T1, Escherichia coli K12; assay: microbe, parasite or virus in culture; set-up: broth microdilution growth inhibition, OD595, overnight; MIC50 = concentration reducing growth by 50%; details: MIC50, 50% growth reduction
T1 construct: K12
Protocol: (§1) P. fluorescens Pf-5, E. coli (TOP10 or C43), B. subtilis (W23) or M. flavus colonies were isolated from an agar plate and inoculated in 5 mL of Luria-Bertani broth overnight at 37 °C. E. coli C43/pET28a-mraY was grown in Luria-Bertani media containing 50 μg mL^−1 kanamycin. […] Serial dilutions of 125, 62.5, 31.25, 15.63, 7.82, 3.90, 1.95 and 0.97 μg mL^−1 test compound were prepared. 10 μL of water, MeOH and DMSO were added to separate wells to serve as a growth control. Each test condition was tested in triplicate. The 96-well plate was covered and incubated overnight at 30 or 37 °C. Optical density (OD595) was measured using a HIDEX Sense microplate reader 425–301. The inhibitor concentration which reduced the growth by 50% was measured as the MIC50 of the compound. The set of analogues were tested for antimicrobial activity against laboratory strains of E. coli K12, B. subtilis W23, and Pseudomonas fluorescens Pf-5.

Bacillus subtilis W23 = tested on: T2, Bacillus subtilis W23; assay: microbe, parasite or virus in culture; set-up: broth microdilution growth inhibition, OD595, overnight; MIC50 = concentration reducing growth by 50%; details: MIC50, 50% growth reduction
T2 construct: W23
Protocol: as §1

[1] = tested on: T3, Pseudomonas fluorescens Pf-5; assay: microbe, parasite or virus in culture; set-up: broth microdilution growth inhibition, OD595, overnight; MIC50 = concentration reducing growth by 50%; details: PF5, MIC50, 50% growth reduction
T3 construct: Pf-5
Protocol: as §1

[2] = biological target: T4, translocase MraY (phospho-MurNAc-pentapeptide translocase) (Escherichia coli, UniProt P0A6W3); assay: continuous fluorescence assay, % inhibition at […], overexpressed membranes; type: biochemical
T4 construct: membranes containing overexpressed E. coli MraY

[3] = biological target: T5, translocase MraY (phospho-MurNAc-pentapeptide translocase) (Escherichia coli, UniProt P0A6W3); assay: biochemical; set-up: continuous fluorescence enhancement assay, dansyl-UDPMurNAc-pentapeptide to dansyl-lipid I, membranes overexpressing E. coli MraY
T5 construct: membranes containing overexpressed E. coli MraY
T5 sequence (P0A6W3 1-360): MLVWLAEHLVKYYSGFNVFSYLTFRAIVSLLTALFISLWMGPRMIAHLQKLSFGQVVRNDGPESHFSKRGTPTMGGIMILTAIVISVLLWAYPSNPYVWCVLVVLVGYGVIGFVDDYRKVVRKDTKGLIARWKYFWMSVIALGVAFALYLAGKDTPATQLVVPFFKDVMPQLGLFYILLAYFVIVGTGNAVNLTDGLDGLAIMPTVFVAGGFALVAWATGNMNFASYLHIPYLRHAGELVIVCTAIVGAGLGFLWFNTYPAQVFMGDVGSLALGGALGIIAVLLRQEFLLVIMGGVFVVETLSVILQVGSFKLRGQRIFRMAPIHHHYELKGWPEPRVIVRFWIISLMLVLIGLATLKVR
Protocol: UDP-MurNAc-L-Ala-γ-D-Glu-L-Lys-D-Ala-D-Ala was prepared enzymatically using the methods described by Lloyd et al.,[32] and was converted to UDP-MurNAc-L-Ala-γ-D-Glu-L-Lys(Nε-dansyl)-D-Ala-D-Ala using the method of Brandish et al.[5] The MraY-catalysed reaction was monitored on a HIDEX Sense microplate reader 425–301 (λex 340 nm, λem 530 nm). To monitor the formation of dansyl-lipid I, membranes containing overexpressed E. coli MraY (15 μL of 0.6 mg mL^−1 stock) were incubated with UDP-MurNAc-L-Ala-γ-D-Glu-L-Lys(Nε-dansyl)-D-Ala-D-Ala (25 μM), undecaprenyl phosphate (30 μM, from stock solution in […] Tris buffer pH 7.5 containing 2 mM β-mercaptoethanol, 1 mM MgCl2, 20% glycerol, 0.5% Triton X-100), in 100 mM Tris buffer pH 7.5 containing 25 mM MgCl2, in a total volume of 100 μL. Test compounds were assayed at 200 μM final concentration, in triplicate assays, and compound 6d was assayed at 25–200 μM concentration in triplicate assays. Tunicamycin (20 μM) was used as a positive control for enzyme inhibition assays. Membranes containing overexpressed E. coli R288L mutant MraY were prepared as described in Rodolis et al.[16] Radiochemical assays were carried out using membranes containing overexpressed E. coli MraY as described in Mihalyi et al.[19] The set of analogues were assayed against particulate E. coli MraY from overexpressed membranes, using a fluorescence enhancement assay with fluorescent substrate UDPMurNAc-L-Ala-γ-D-Glu-L-Lys(ε-N-dansyl)-D-Ala-D-Ala, used previously to assay MraY.[5,16,17]

[4] = biological target: T4, translocase MraY (phospho-MurNAc-pentapeptide translocase); assay: continuous fluorescence assay with dansyl-UDPMurNAc-pentapeptide, overexpressed membranes; type: biochemical
From the text: continuous fluorescence assay with dansyl-UDPMurNAc-pentapeptide, overexpressed membranes on translocase MraY (phospho-MurNAc-pentapeptide translocase) | highest enzyme inhibition shown by compound 6d.

MIC50 (Escherichia coli K12) [µg/mL]	MIC50 (Bacillus subtilis W23) [µg/mL]	inhibition at 200 µM ([3]; continuous fluorescence assay) [%]	Structure (SMILES)	MIC50 [1] [µg/mL]	inhibition at 200 µM [2] [%]	IC50 [4] [µM]	inhibition at 200 µM ([3]; read-out: % MraY inhibition @200 μM) [%]
16 (≈ 39.7 µM)	8 (≈ 19.8 µM)	50	CCCCCCCCn1c(=O)nc(NCCN)n(Cc2ccc(OC)cc2)c1=O [6b]	32 (≈ 79.3 µM)			
16 (≈ 38.5 µM)	8 (≈ 19.3 µM)	41	CCCCCCCCn1c(=O)nc(NCCNC(=N)N)n(Cc2ccccc2)c1=O [7a]	32 (≈ 77 µM)			
64 (≈ 154 µM)	128 (≈ 307 µM)	39	CCCCCCCCn1c(=O)nc(NCCNC(N)=O)n(Cc2ccccc2)c1=O [compound 12]				
8 (≈ 17.8 µM)	8 (≈ 17.8 µM)	42	CCCCCCCCn1c(=O)nc(NCCNC(=N)N)n(Cc2ccc(Cl)cc2)c1=O [7f]	32 (≈ 71.1 µM)			
16 (≈ 35.9 µM)	2 (≈ 4.49 µM)	48	CCCCCCCCn1c(=O)nc(NCCNC(=N)N)n(Cc2ccc(OC)cc2)c1=O [7b]	32 (≈ 71.8 µM)			
64 (≈ 159 µM)	32 (≈ 79.3 µM)	42	CCCCCCCCn1c(=O)nc(NCCN)n(Cc2cccc(OC)c2)c1=O [6c]	> 256			
16 (≈ 42.8 µM)	8 (≈ 21.4 µM)	36	CCCCCCCCn1c(=O)nc(NCCN)n(Cc2ccccc2)c1=O [6a]	64 (≈ 171 µM)			
64 (≈ 163 µM)	32 (≈ 81.7 µM)	35	CCCCCCCCn1c(=O)nc(NCCN)n(Cc2ccc(F)cc2)c1=O [6e]	128 (≈ 327 µM)			
> 256	> 256	39	CCCCCCCCn1c(=O)nc(NCCO)n(Cc2ccccc2)c1=O [compound 11]				
4 (≈ 8.27 µM)	1 (≈ 2.07 µM)	43	CCCCCCCCn1c(=O)nc(NCCNC(=N)N)n(Cc2ccc(C(F)(F)F)cc2)c1=O [7j]	16 (≈ 33.1 µM)			
8 (≈ 19.6 µM)	4 (≈ 9.81 µM)	15	CCCCCCCCn1c(=O)nc(NCCN)n(Cc2ccc(Cl)cc2)c1=O [6f]	64 (≈ 157 µM)			

Structure (SMILES)	MIC50 (Escherichia coli K12) [µg/mL]	MIC50 (Bacillus subtilis W23) [µg/mL]	inhibition at 200 µM ([3]; continuous fluorescence assay) [%]	MIC50 [1] [µg/mL]	inhibition at 200 µM [2] [%]	IC50 [4] [µM]	inhibition at 200 µM ([3]; read-out: % MraY inhibition @200 μM) [%]
CCCCCCCCn1c(=O)nc(NCCN)n(Cc2ccc([N+](=O)[O-])cc2)c1=O [6h]	64 (≈ 153 µM)	32 (≈ 76.5 µM)		> 256	63		
CCCCCCCCn1c(=O)nc(NCCNC(=N)N)n(Cc2ccc(F)cc2)c1=O [7e]	16 (≈ 36.9 µM)	4 (≈ 9.23 µM)		32 (≈ 73.8 µM)	63		
CCCCCCCCn1c(=O)nc(NCCNC(=N)N)n(Cc2cccc(OC)c2)c1=O [7c]	16 (≈ 35.9 µM)	4 (≈ 8.98 µM)		32 (≈ 71.8 µM)	57		
CCCCCCCCn1c(=O)nc(NCCN)n(C(CCc2ccccc2)c2ccccc2)c1=O (stereo not shown) [compound 13, 13]	256 (≈ 536 µM)	128 (≈ 268 µM)			64		
CCCCCCCCn1c(=O)nc(NCCNC(=N)N)n(Cc2ccccc2OC)c1=O [7d]	16 (≈ 35.9 µM)	4 (≈ 8.98 µM)		> 256	57		
CCCCCCCCn1c(=O)nc(NCCNC(=N)N)n(Cc2ccc([N+](=O)[O-])cc2)c1=O [7h]	64 (≈ 139 µM)	32 (≈ 69.5 µM)		256 (≈ 556 µM)	70		
CCCCCCCCn1c(=O)nc(NCCN)n(Cc2ccccc2OC)c1=O [6d]	64 (≈ 159 µM)	32 (≈ 79.3 µM)		> 256		48	80
CCCCCCCCn1c(=O)nc(NCCN)n(Cc2ccc(Br)cc2)c1=O [6g]	16 (≈ 35.4 µM)	16 (≈ 35.4 µM)		64 (≈ 141 µM)	68		
CCCCCCCCn1c(=O)nc(NCCNC(=N)N)n(Cc2ccc(Br)cc2)c1=O [7g]	16 (≈ 32.4 µM)	4 (≈ 8.09 µM)		256 (≈ 518 µM)	51		
CCCCCCCCn1c(=O)nc(NCCN)n(Cc2ccc(C(F)(F)F)cc2)c1=O [6j]	64 (≈ 145 µM)	32 (≈ 72.5 µM)		> 256	59		

— article PMC11812184, “Antimicrobial triazinedione inhibitors of the translocase MraY–protein E interaction site: synergistic effects with bacitracin imply a new mechanism of action” (RSC Medicinal Chemistry, 2025)
